Consider 14 compounds from US20210255193A1, “LYSINE REACTIVE PROBES AND USES THEREOF” (The Scripps Research Institute, priority 2017, published 2021).

Holding throughout (test): competitive isoTOP-ABPP
Common to all, as to format: binding

In test [1] the target is T1, HK1 Hexokinase-1 (Homo sapiens, UniProt P19367).
T1 construct: isoTOP-ABPP experiments performed in cell lysates (in vitro); endogenous in cells; host or cells: soluble proteome of human cancer cell lines (MDA-MB-231; Ramos and Jurkat also prepared)
T1 sequence (P19367 1-917): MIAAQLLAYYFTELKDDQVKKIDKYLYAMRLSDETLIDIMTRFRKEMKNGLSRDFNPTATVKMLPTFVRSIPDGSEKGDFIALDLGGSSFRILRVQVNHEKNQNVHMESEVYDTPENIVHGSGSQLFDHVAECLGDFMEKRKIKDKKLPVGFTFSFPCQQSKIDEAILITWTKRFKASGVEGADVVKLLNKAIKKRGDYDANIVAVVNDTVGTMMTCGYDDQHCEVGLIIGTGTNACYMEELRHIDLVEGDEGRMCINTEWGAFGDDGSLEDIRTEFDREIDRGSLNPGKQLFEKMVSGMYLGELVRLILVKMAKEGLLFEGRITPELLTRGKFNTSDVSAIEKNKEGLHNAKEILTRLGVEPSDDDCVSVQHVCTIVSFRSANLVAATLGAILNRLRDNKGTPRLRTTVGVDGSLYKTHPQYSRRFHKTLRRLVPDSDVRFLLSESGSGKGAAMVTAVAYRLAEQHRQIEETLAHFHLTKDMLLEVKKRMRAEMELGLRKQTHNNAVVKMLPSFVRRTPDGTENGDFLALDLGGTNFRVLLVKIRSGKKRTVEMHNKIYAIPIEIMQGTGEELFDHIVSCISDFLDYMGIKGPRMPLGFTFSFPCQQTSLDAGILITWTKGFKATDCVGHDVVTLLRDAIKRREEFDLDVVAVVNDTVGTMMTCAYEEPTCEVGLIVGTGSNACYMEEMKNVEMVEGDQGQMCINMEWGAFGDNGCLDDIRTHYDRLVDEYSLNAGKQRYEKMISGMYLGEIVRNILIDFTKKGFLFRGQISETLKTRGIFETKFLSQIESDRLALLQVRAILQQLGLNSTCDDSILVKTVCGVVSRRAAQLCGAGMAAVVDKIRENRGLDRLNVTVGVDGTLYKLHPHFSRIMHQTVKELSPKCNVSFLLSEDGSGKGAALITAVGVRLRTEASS
On the set-up: key to isoTOP-ABPP reactivity ratio at lysine P19367_K510: R = MS1 peak area ratio, DMSO (heavy) / compound-treated (light). Particulars: for R value (DMSO/fragment) for probe 1 labeling: P19367_K510; for R value (DMSO/fragment) for probe 1 labeling / isoTOP-ABPP reactivity ratio at lysine P19367_K510: 231 sol; for isoTOP-ABPP ratio, lysine P19367_K510: 50 uM_231_sol_in vitro. As to the method:
(§1) In vitro covalent fragment treatment for isoTOP-ABPP. All compounds were made up as solutions in DMSO (100×) and were used at a final concentration of 50 μM for activated esters and 100 μM for guanidinylating agents. For each profiling sample, 0.5 ml of lysate was treated with 5 μl of the 100× compound stock solution or 5 μl of DMSO. Samples were treated with activated esters for
(§2) STP-alkyne labeling and click chemistry. For concentration-dependent reactivity measurements by isoTOP-ABPP, 0.5 ml proteome aliquots were treated at ambient temperature with 1 mM STP-alkyne 1 (5 μl of 100 mM stock in DMSO) and 0.1 mM STP alkyne 1 (5 μl of 10 mM stock in DMSO), respectively. For competitive isoTOP-ABPP, after in vitro fragment treatment (detailed above), the samples were labeled for 1 h at ambient temperature with 0.1 mM STP-alkyne 1 (5 μl of 10 mM stock in DMSO). Samples were conjugated by copper-mediated azide-alkyne cycloaddition (CuAAC) to either the light (1 mM STP-alkyne or fragment treated) or heavy (0.1 mM STP-alkyne or DMSO treated) TEV tags (10 μl of 5 mM stocks in DMSO, final concentration=100 μM) using tris(2-carboxyethyl)phosphine hydrochloride
(§3) R value calculation and processing. The ratios of light and heavy MS1 peaks for each unique peptide were quantified with a CIMAGE software using default parameters (3 MS1 acquisitions per peak and signal to noise threshold set to 2.5). For reactivity measurements by isoTOP-ABPP, the R value was calculated from the ratio of MS1 peak areas, comparing the 1 mM STP alkyne sample (light TEV tag) with the 0.1 mM STP alkyne sample (heavy TEV tag). For competitive isoTOP-ABPP, the R value was calculated from the ratio of MS1 peak areas, comparing the DMSO treated sample (heavy TEV tag) with the compound treated sample (light TEV tag). […] Ratios for unique peptide entries are calculated for each experiment; overlapping peptides with the same modified lysine (for example, different charge states, MudPIT chromatographic steps or tryptic termini) are grouped together and the median ratio is reported as the final ratio (R). The peptide ratios reported by CIMAGE were further filtered to ensure the removal or correction of low-quality ratios in each individual data set. The quality filters applied were the following: removal of half tryptic peptides; for ratios with high standard deviations from the median (90% of the median or above) the lowest ratio was taken instead of the median; removal of peptides with R=20 and only a single MS2 event triggered during the elution of the parent ion; manual annotation of all the peptides with ratios of 20, removing any peptides with low quality elution profiles that remained after the previous curation steps (only done for competitive isoTOP-ABPP).
(§4) Cross-data processing for fragment screening. For compound treated samples, biological replicates of the same condition were averaged, if the standard deviation was below 60% of the mean; otherwise, for lysines with at least one R value <4 for a particular compound, the lowest value of the ratio set was taken. For lysines, where all R values for a particular compound were ≥4, the average was reported. For peptides containing several possible modified lysines, the lysine with the highest number of quantification events was used for analysis and the remaining, redundant peptides were reported as alternative modification sites. Peptides included in the aggregate dataset (those used for further bioinformatics and statistical analyses) were required to have been quantified in 2 experiments for competitive isoTOP-ABPP. Lysines were categorized as liganded, if they had at least one ratio R≥4 (hit fragments). For liganded lysines with R=20 for all liganding events, lysines were required to have been quantified with R=20 in two separate experiments and were further required to have been quantified with R<20 in one additional experiment.

Test [2] has as its target T2, NUDT2 Bis(5-nucleosyl)-tetraphosphatase (Homo sapiens, UniProt P50583).
T2 construct: isoTOP-ABPP experiments performed in cell lysates (in vitro); endogenous in cells
On the set-up: key to isoTOP-ABPP reactivity ratio at lysine P50583_K89: R = MS1 peak area ratio, DMSO (heavy) / compound-treated (light). As to conditions: for R value (DMSO/fragment) for probe 1 labeling: P50583_K89; for R value (DMSO/fragment) for probe 1 labeling / isoTOP-ABPP reactivity ratio at lysine P50583_K89 / isoTOP-ABPP ratio (R) at liganded lysine P50583_K89: 50 uM, in vitro; for R value (DMSO/fragment) for probe 1 labeling / isoTOP-ABPP reactivity ratio at lysine P50583_K89: 231 sol; for isoTOP-ABPP ratio (R) at liganded lysine P50583_K89: sol, 231; for isoTOP-ABPP ratio, lysine P50583_K89: 50 uM_231_sol_in vitro, possible other lysine P50583_K87. Here is the method: as §1, §2, §3, §4

The target of test [3] is T3, PSME3 Proteasome activator complex subunit 3 (Homo sapiens, UniProt P61289).
T3 construct: isoTOP-ABPP experiments performed in cell lysates (in vitro); endogenous in cells; host or cells: soluble proteome of human cancer cell lines (MDA-MB-231, Ramos, Jurkat)
On the set-up: key to isoTOP-ABPP reactivity ratio at lysine P61289_K237: R = MS1 peak area ratio, DMSO (heavy) / compound-treated (light); key to isoTOP-ABPP reactivity ratio at lysine P61289_K12: R = MS1 peak area ratio, DMSO (heavy) / compound-treated (light); capped at 20. Particulars: 50 uM, in vitro; for R value (DMSO/fragment) for probe 1 labeling / isoTOP-ABPP reactivity ratio at lysine P61289_K237 / isoTOP-ABPP reactivity ratio at lysine P61289_K12: 231 sol. As to the method:
as §1, §2, §3, §4

T2 sequence (P50583 whole entry): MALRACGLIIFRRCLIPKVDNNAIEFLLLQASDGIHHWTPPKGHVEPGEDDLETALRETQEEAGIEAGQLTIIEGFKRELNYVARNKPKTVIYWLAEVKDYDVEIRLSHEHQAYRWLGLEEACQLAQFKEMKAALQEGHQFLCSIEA
T3 sequence (P61289 whole entry, one chain of several): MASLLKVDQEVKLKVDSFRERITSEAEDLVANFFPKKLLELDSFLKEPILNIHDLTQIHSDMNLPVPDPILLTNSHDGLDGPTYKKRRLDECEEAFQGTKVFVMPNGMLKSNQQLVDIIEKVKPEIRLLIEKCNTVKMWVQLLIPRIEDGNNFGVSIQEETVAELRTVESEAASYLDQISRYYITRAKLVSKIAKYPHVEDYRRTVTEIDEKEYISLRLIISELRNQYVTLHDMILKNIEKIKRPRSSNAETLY

With `O=C(CCc1cn(-c2ccccc2)nc1-c1ccccc1)Oc1c(F)c(F)c(F)c(F)c1F` [fragment 19, Pentafluorophenyl 3-(1,3-diphenyl-1H-pyrazol-4-yl)propanoate], the “R value (DMSO/fragment) for probe 1 labeling” value (shortened to “R value (DMSO/fragment)”) in test [1] (50 uM, in vitro) stood at 1.2; in test [2] it was 1.0; in test [3] (P61289_K12), 1.0; in test [3] (P61289_K237), 0.2.
As to `O=C(Oc1c(F)c(F)c(F)c(F)c1F)C(c1ccccc1)c1ccccc1` [fragment 20, Pentafluorophenyl 2,2-diphenylacetate], the “R value (DMSO/fragment)” value was found to be 0.9 in test [1] (50 uM, in vitro); 0.9 in test [2]; 0.9 in test [3] (P61289_K12); 0.9 in test [3] (P61289_K237).
On to `O=C(Oc1c(F)c(F)c(F)c(F)c1F)c1cc(C(F)(F)F)cc(C(F)(F)F)c1` [fragment 21, Pentafluorophenyl 3,5-bis(trifluoromethyl)benzoate], for which the “R value (DMSO/fragment)” value in test [1] (50 uM, in vitro) is recorded as 1.0; in test [2] it was 0.9; in test [3] (P61289_K12), 1.0; in test [3] (P61289_K237), 0.9.
Turning to `Cn1cc(CC(=O)Oc2c(F)c(F)c(F)c(F)c2F)c2ccccc21` [fragment 22, Pentafluorophenyl 2-(1-methyl-1H-indol-3-yl)acetate], the “R value (DMSO/fragment)” value in test [1] (50 uM, in vitro) was 1.3; in test [2] it was 0.9; in test [3] (P61289_K12) it was 0.9; in test [3] (P61289_K237), 1.1.
With `COc1cc(CCC(=O)Oc2c(F)c(F)c(F)c(F)c2F)cc(OC)c1OC` [fragment 23, Pentafluorophenyl 3-(3,4,5-trimethoxyphenyl)propanoate], the “R value (DMSO/fragment)” value in test [1] (50 uM, in vitro) is on record as 2.0; in test [2], 1.0; in test [3] (P61289_K237) it was 0.5.
For `O=C(Oc1c(F)c(F)c(F)c(F)c1F)C1CCN(C(=O)OCc2ccccc2)CC1` [fragment 24, 1-Benzyl 4-(pentafluorophenyl) piperidine-1,4-dicarboxylate], in test [2], the “isoTOP-ABPP reactivity ratio at lysine P50583_K89” value came out at 0.9. Also, the “isoTOP-ABPP reactivity ratio at lysine P61289_K237” value in test [3] stood at 0.2.
Consider `O=C(Oc1c(F)c(F)c(F)c(F)c1F)c1ccc2ccccc2n1` [fragment 25, Pentafluorophenyl quinoline-2-carboxylate], for which the “isoTOP-ABPP reactivity ratio at lysine P19367_K510” value in test [1] (50 uM, in vitro) is listed as 1.2. Further, the “isoTOP-ABPP reactivity ratio at lysine P50583_K89” value in test [2] amounted to 1.0. In addition, in test [3], the “isoTOP-ABPP reactivity ratio at lysine P61289_K12” value is listed as 0.9 and the “isoTOP-ABPP reactivity ratio at lysine P61289_K237” value is 0.5.
`O=C(CCc1coc2cc(F)ccc2c1=O)Oc1c(F)c(F)c(F)c(F)c1F` [fragment 26, Pentafluorophenyl 3-(7-fluoro-4-oxo-4H-chromen-3-yl)propanoate]: the “isoTOP-ABPP reactivity ratio at lysine P19367_K510” value in test [1] (50 uM, in vitro) was 3.4. Moreover, in test [2], the “isoTOP-ABPP reactivity ratio at lysine P50583_K89” value amounted to 0.9. For the same compound, in test [3], the “isoTOP-ABPP reactivity ratio at lysine P61289_K12” value is 0.9 and the “isoTOP-ABPP reactivity ratio at lysine P61289_K237” value worked out at 1.1.
For `O=C(CN1C(=O)c2ccccc2C1=O)Oc1c(F)c(F)c(F)c(F)c1F` [fragment 27, Pentafluorophenyl 2-(1,3-dioxoisoindolin-2-yl)acetate], in test [1] (50 uM, in vitro), the “isoTOP-ABPP reactivity ratio at lysine P19367_K510” value is recorded as 1.3. Further, the “isoTOP-ABPP reactivity ratio at lysine P50583_K89” value in test [2] is recorded as 0.7. For the same compound, in test [3], the “isoTOP-ABPP reactivity ratio at lysine P61289_K237” value worked out at 0.8.
For `CCn1cc(C(=O)Oc2c(F)c(F)c(F)c(F)c2F)c(=O)c2ccc(C)nc21` [fragment 28, Pentafluorophenyl 1-ethyl-7-methyl-4-oxo-1,4-dihydro-1,8-naphthyridine-3-carboxylate], the “isoTOP-ABPP reactivity ratio at lysine P19367_K510” value in test [1] (50 uM, in vitro) worked out at 0.9. Besides, in test [2], the “isoTOP-ABPP reactivity ratio at lysine P50583_K89” value was 1.0. In addition, in test [3], the “isoTOP-ABPP reactivity ratio at lysine P61289_K12” value came out at 1.0 and the “isoTOP-ABPP reactivity ratio at lysine P61289_K237” value was 0.6.
In the case of `O=C(Oc1ccc([N+](=O)[O-])cc1[N+](=O)[O-])c1ccccc1Nc1cccc(C(F)(F)F)c1` [fragment 40, 2,4-Dinitrophenyl 2-((3-(trifluoromethyl)phenyl)amino)benzoate], the “isoTOP-ABPP ratio (R) at liganded lysine P50583_K89” value in test [2] was determined as 0.9. In addition, in test [3] (sol, 231), the “isoTOP-ABPP ratio (R) at liganded lysine P61289_K12” value stood at 0.8 and the “isoTOP-ABPP ratio (R) at liganded lysine P61289_K237” value is 0.7.
Regarding `CC(=O)Oc1ccc([N+](=O)[O-])cc1[N+](=O)[O-]` [fragment 43, 2,4-Dinitrophenyl acetate], the “isoTOP-ABPP ratio (R) at liganded lysine P19367_K510” value in test [1] (50 uM, in vitro, sol, 231) is reported as 20.0. Further, the “isoTOP-ABPP ratio (R) at liganded lysine P50583_K89” value in test [2] is on record as 1.1.
With `N#Cc1ccc(C(=O)Oc2ccc([N+](=O)[O-])cc2[N+](=O)[O-])cc1` [fragment 44, 2,4-Dinitrophenyl 4-cyanobenzoate], in test [1], the “isoTOP-ABPP ratio, lysine P19367_K510” value came to 1.2. In test [2], the “isoTOP-ABPP ratio, lysine P50583_K89” value was found to be 0.9.
The corresponding values for `O=C(Oc1c(F)c(F)cc(F)c1F)c1cc(C(F)(F)F)cc(C(F)(F)F)c1` [fragment 48, 2,3,5,6-Tetrafluorophenyl 3,5-bis(trifluoromethyl)benzoate] are 0.8 and 1.0.
